“Also recorded” adds a separate entry of the source.
Legend:
[1] = system: NFATc2 expression in UCB T lymphocytes; assay: NFATc2 protein expression by intracellular flow cytometry in gated CD3+ cells of UCB MNC; type: cell-based, human; conditions: for NFATc2 expression (dual staining for NFATc2 and IFN-γ): ConA alone or ConA + 100 U/ml IFN-γ
Procedure: (§1) Human umbilical cord blood from full-term deliveries by vaginal or caesarean sections and adult peripheral blood from healthy donors was collected according to guidelines by the Institutional Review Board at University Hospitals of Cleveland. Mononuclear cells (MNC) were isolated by gradient centrifugation, as previously described (6) and used immediately fresh.
(§2) Total MNC were stimulated in bulk culture as previously described (6). Briefly, 2×10^6 cells/ml were stimulated with 2 μg/ml of concanavalin A (ConA) (Sigma Chemical Co, St Louis, Mo.) in complete RPMI medium (Gibco BRL, Gaithersburg, Md.), containing 10% fetal bovine serum (Gibco BRL), 1 mM Sodium-pyruvate, 0.1 mM nonessential amino acids, 10 mM HEPES and 58 μM 2-mercaptoethanol (Sigma Chemical Co), in presence or absence of the manufacturer's recommended concentration of 1 μg/ml of cyclosporin A (CsA) (Sigma Chemical Co), as previously described (7). Where specified, IFN-γ (Roche, Indianapolis, Ind.) was added at indicated concentrations, or neutralizing anti-IFN-γ antibody (R&D Systems, Minneapolis, Minn.) was added at a concentration of 0.25-2 μg/ml. Purified T cells were stimulated as described (26), with plate-bound anti-CD3 (1 μg/ml) and soluble anti-CD28 (5 μg/ml) monoclonal antibodies. Elispot assays were performed as previously described (27). Briefly, ImmunoSpot plates M200 (Cellular Technology Limited, Cleveland Ohio) were coated with capture antibody for IFN-γ M700A-E (2 μg/ml; Endogen, Woburn, Mass.), washed and MNC were plated in complete RPMI medium with 5% ABO serum (Gemini Bioproducts, Calmasas, Calif.)+1% L-glutamine, at 3×10^5 per well. Cells were stimulated with irradiated 3×10^5 T-cell-depleted MNC from a healthy adult or cord blood. T cells were depleted with RosetteSep (StemCell Technologies, Vancouver, Canada), according to manufacturer's directions. After 24 h of stimulation, plates were washed and incubated over night with secondary biotinylated detection antibodies against IFN-γ M701 (0.5 μg/ml; Endogen, Woburn, Mass.). Streptavidin-HRP conjugate (Dako Corp., Carpenteria Calif.) was added and the spots were visualized using the HRP-substrate AEC (Pierce Pharmaceuticals, Rockford Ill.), and subjected to image analysis on a Series 1 ImmunoSpot Image Analyzer (Cellular Technology, Cleveland, Ohio) specifically designed for automated evaluation of ELISPOTs.
Intracellular IFN-γ staining was performed as described previously (6, 7). Briefly, MNC were stimulated for the indicated time points, for the last 6-8 h in the presence of 5 μg/ml of Brefeldin A (Sigma Chemical Co), and permeabilized. […] 20,000-80,000 events were acquired on a calibrated Elite ESP flow cytometer (Coulter, Miami, Fla.) and data were analyzed with WinList software (Verity Software House Inc, Topsham, Minn.). […]

[2] = system: IFN-γ expression in UCB T lymphocytes; assay: Intracellular IFN-γ staining in gated CD3+ cells of UCB MNC; type: cell-based, human; conditions: for average percentage of T cells producing IFN-γ: whole UCB MNC
Procedure: as §1, §2
MNC from UCB were depleted of monocytes by using monoclonal antibody against CD11b (Pharmingen), followed by anti-IgG magnetic bead (Dynal) depletion as above, or by using anti-CD14 microbeads (Miltenyi Biotech Inc., Auburn, Calif.) and AutoMACS (Miltenyi Biotech Inc.), according to manufacturer's protocol.
Intracellular IFN-γ staining was performed as described previously (6, 7). […] 1×10^6 cells were stained for 30 minutes with the following antibodies: anti-IFN-γ-FITC or -PE (R&D Systems), anti-CD3-APC (Pharmingen), and anti-CD69-PE (Pharmingen) or -PerCP (Becton Dickinson, San Jose, Calif.) and the corresponding isotype controls (Pharmingen, Becton Dickinson). 20,000-80,000 events were acquired on a calibrated Elite ESP flow cytometer (Coulter, Miami, Fla.) and data were analyzed with WinList software (Verity Software House Inc, Topsham, Minn.). For intracellular staining of NFATc2, the same monoclonal antibody clone as used in immunoblotting was custom FITC-conjugated (Transduction Laboratories) and used at a titrated concentration of 1 μg/10^6 cells.

[3] = system: NFATc2 expression in adult T lymphocytes; assay: NFATc2 protein expression by intracellular flow cytometry in gated CD3+ cells of stimulated adult MNC; type: cell-based, human; conditions: adult MNC stimulated 24 h, exogenous IFN-γ 100 U/ml
Procedure: as §1
(§3) Total MNC were stimulated in bulk culture as previously described (6). Briefly, 2×10^6 cells/ml were stimulated with 2 μg/ml of concanavalin A (ConA) (Sigma Chemical Co, St Louis, Mo.) in complete RPMI medium (Gibco BRL, Gaithersburg, Md.), containing 10% fetal bovine serum (Gibco BRL), 1 mM Sodium-pyruvate, 0.1 mM nonessential amino acids, 10 mM HEPES and 58 μM 2-mercaptoethanol (Sigma Chemical Co), in presence or absence of the manufacturer's recommended concentration of 1 μg/ml of cyclosporin A (CsA) (Sigma Chemical Co), as previously described (7). Where specified, IFN-γ (Roche, Indianapolis, Ind.) was added at indicated concentrations, or neutralizing anti-IFN-γ antibody (R&D Systems, Minneapolis, Minn.) was added at a concentration of 0.25-2 μg/ml. […]
(§4) Intracellular IFN-γ staining was performed as described previously (6, 7). […] 20,000-80,000 events were acquired on a calibrated Elite ESP flow cytometer (Coulter, Miami, Fla.) and data were analyzed with WinList software (Verity Software House Inc, Topsham, Minn.). […]

[4] = system: IFN-γ expression in purified UCB T cells; assay: Intracellular IFN-γ staining in purified UCB T cells; type: cell-based, human
Procedure: as §1, §3, §4

[5] = system: IFN-γ expression in purified adult T cells; assay: Intracellular IFN-γ staining in purified adult T cells; type: cell-based, human; conditions: anti-CD3/CD28 24 h, exogenous IFN-γ 100 U/ml
Procedure: as §1, §3, §4

[6] = system: IFN-γ expression by UCB MNC; conditions: exogenous IL-12 added to the stimulation conditions; cited from earlier work
[7] = experiment 1, whole UCB MNC, 24 h
[8] = experiment 2, whole UCB MNC, 24 h
[9] = experiment 3, whole UCB MNC, 24 h
[10] = experiment 4, whole UCB MNC, 24 h

Molecule: concanavalin A [ConA, reference compound]
- NFATc2 expression (dual staining for NFATc2 and IFN-γ) [1]: increase in NFATc2 upregulation
- IFN-γ expression ([2]; UCB MNC, ConA alone): only a slight increase in IFN-γ expression
- percentages of CD3+ cells positive for IFN-γ staining [2, 7]: 0.96%
- percentages of CD3+ cells positive for IFN-γ staining [2, 8]: 0.78%
- percentages of CD3+ cells positive for IFN-γ staining [2, 9]: 0.96%
- percentages of CD3+ cells positive for IFN-γ staining [2, 10]: 1.05%
- average percentage of T cells producing IFN-γ ([2]; n=4): 0.9%

Molecule: C[C@H]1CCC/C=C/[C@@H]2C[C@H](O)C[C@H]2[C@H](O)/C=C/C(=O)O1 [Brefeldin A, reference compound]
- upregulation of IFN-γ in UCB T cells ([2]; UCB MNC, ConA ± IFN-γ 100 U/ml, BFA added immediately and for the whole stimulation (BFA 24 h)): no upregulation of IFN-γ could be observed

Molecule: TNF-A
- upregulation of IFN-γ expression ([2]; UCB MNC, ConA 24 h, TNF-A (1 ng/ml) or IL-2 added in place of IFN-γ): did not result in upregulation of IFN-γ expression

Molecule: IFN-γ: IFN-γ (Roche, Indianapolis, Ind.) added exogenously during stimulation
- NFATc2 expression [3]: further upregulation of NFATc2
- NFATc2 protein expression ([1]; ConA 16 h, added IFN-γ 10-1,000 U/ml, gated CD3+ cells): increased in a dose dependent manner
- NFATc2 expression (dual staining for NFATc2 and IFN-γ) [1]: strong increases of NFATc2 expression
- NFATc2 levels ([1]; absence of stimulation, IFN-γ alone 100 U/ml): intermediate between unstimulated and stimulated T lymphocytes; also recorded: only slightly increased NFATc2 expression
- IFN-γ-mediated rescue effect ([2]; UCB MNC depleted of B cells and NK cells): did not result in a significant loss of the IFN-γ-mediated rescue effect
- average percentage of IFN-γ producing T cells ([2]; UCB MNC depleted of monocytes prior to stimulation, ConA + IFN-γ, n=4): 1.0%
- percentages of IFN-γ-expressing T lymphocytes ([2]; UCB MNC, ConA 24 h, exogenous IFN-γ 100 U/ml): rose close to that measured in adult T lymphocytes
- lowest dose of exogenous IFN-γ with effective IFN-γ rescue ([2]; UCB MNC, ConA stimulation, dose titrated down): 50 U/ml
- IFN-γ expression ([2]; UCB MNC, no stimulation, IFN-γ alone 100 U/ml): did not stimulate IFN-γ expression
- percentages of CD3+ cells positive for IFN-γ staining ([2]; experiment 1, UCB MNC depleted of CD11b, 24 h): 0.89%
- percentages of CD3+ cells positive for IFN-γ staining [2, 7]: 1.38%
- percentages of CD3+ cells positive for IFN-γ staining ([2]; experiment 2, UCB MNC depleted of CD11b, 24 h): 0.92%
- percentages of CD3+ cells positive for IFN-γ staining [2, 8]: 1.41%
- percentages of CD3+ cells positive for IFN-γ staining ([2]; experiment 3, UCB MNC depleted of CD11b, 24 h): 1.30%
- percentages of CD3+ cells positive for IFN-γ staining [2, 9]: 1.74%
- percentages of CD3+ cells positive for IFN-γ staining ([2]; experiment 4, UCB MNC depleted of CD14, 24 h): 1.07%
- percentages of CD3+ cells positive for IFN-γ staining [2, 10]: 1.83%
- average percentage of T cells producing IFN-γ ([2]; n=4): 1.6%
- IFN-γ rescue effect ([4]; ConA, IFN-γ added): no IFN-γ rescue effect was observed
- IFN-γ expression ([4]; anti-CD3/CD28 24 h, exogenous IFN-γ 100 U/ml): could not be rescued
- IFN-γ expression [5]: no increase in IFN-γ expression was observed

B1: IL-12: exogenous cytokine, literature result (ref 44) (protein, UniProt P29459 23-219; P29460 23-328, looked up)
Interleukin-12 subunit alpha: RNLPVATPDPGMFPCLHHSQNLLRAVSNMLQKARQTLEFYPCTSEEIDHEDITKDKTSTVEACLPLELTKNESCLNSRETSFITNGSCLASRKTSFMMALCLSSIYEDLKMYQVEFKTMNAKLLMDPKRQIFLDQNMLAVIDELMQALNFNSETVPQKSSLEEPDFYKTKIKLCILLHAFRIRAVTIDRVMSYLNAS
Interleukin-12 subunit beta: IWELKKDVYVVELDWYPDAPGEMVVLTCDTPEEDGITWTLDQSSEVLGSGKTLTIQVKEFGDAGQYTCHKGGEVLSHSLLLLHKKEDGIWSTDILKDQKEPKNKTFLRCEAKNYSGRFTCWWLTTISTDLTFSVKSSRGSSDPQGVTCGAATLSAERVRGDNKEYEYSVECQEDSACPAAEESLPIEVMVDAVHKLKYENYTSSFFIRDIIKPDPPKNLQLKPLKNSRQVEVSWEYPDTWSTPHSYFSLTFCVQVQGKSKREKKDRVFTDKTSATVICRKNASISVRAQDRYYSSSWSEWASVPCS
- IFN-γ expression by UCB MNC [6]: could be increased

From patent publication US20050191283A1, “Methods of treating NFAT-related disorders” (priority 2003, published 2005)
